Measurements: patent USRE38332E1, “Selected soluble esters of hydroxyl-containing indolocarbazoles” (Cephalon, Inc., priority 1995, dated 2003)

Tests used:
[1] = test system: Dunning R-3327 AT-2 rat prostate tumor; assay: Anti-tumor efficacy against the androgen-independent AT-2 rat prostate tumor; format: in vivo; details: for Tumor volume Day 0: Day 0, daily sc dosing; for Tumor volume Day 0 / Tumor volume Day 3 / Tumor volume Day 6 / Tumor volume Day 9 / Tumor volume Day 13: Mean ± SE; for Tumor volume Day 3: Day 3, daily sc dosing; for Tumor volume Day 6: Day 6, daily sc dosing; for Tumor volume Day 9: Day 9, daily sc dosing; for Tumor volume Day 13: Day 13, daily sc dosing; for inhibiting the growth of AT-2 tumors: adult male Copenhagen rats; for inhibition of tumor growth: by Day 13 of dosing
Description: Rat prostate cancer Dunning R-3327 AT-2.1 cells (Isaacs et al., Prostate 9:261-281, 1986) were grown at 37 C. in a humidified incubator, with a 95% air/5% CO2 atmosphere, in RPMI-1640 medium containing 10% fetal calf serum, 250 nM dexamethasone, 2 mM glutamine, penicillin (100 I.U./mL), and streptomycin (100 μg/mL), and 1 mM sodium pyruvate. The cells were determined to be free of mycoplasma and rodent viruses (MAP testing) by Microbiological Associates. Exponentially growing cells were harvested using 6 mL of warm trypsin. The total volume was brought up to 10 mL with media to neutralize trypsin and cells were counted. The cells were then collected by brief centrifugation, and cell pellet was resuspended in Hanks' Balanced Salt Solution to achieve the final concentration of 1×10^7 live cells/mL.
Male inbred Copenhagen rats (200-225 g) obtained from Harlan Sprague-Dawley, Indianapolis, Ind., were maintained three rats/cage and given a commercial diet (Purina Formulab 5001) and water ad libitum. Animals were housed under humidity- and temperature-controlled conditions and light/dark cycle was set at 12-hour intervals. Rats were quarantined for one week before experimental manipulation. Tumor cell implantation and growth
Fifty adult male Copenhagen rats were inoculated with live AT-2 cells (1×10^6 cells/rat) into their right flank. Seven days later, rats bearing AT-2 tumors (approximately 0.5‥0.7 cm^3 in volume) were divided into five groups of ten animals each. A description of the experimental groups is given below. Dosing volumes of either I-5 or its lysyl-β-alaninate ester (1 mL/kg) were based on the average weight of the animals in each dosing group and were adjusted as necessary twice a week. Tumors were measured in anesthetized animals (isofluorane vapor for approximately 1-2 minutes) every 3-4 days using a vernier caliper. Tumor volume was calculated using the formula:
V(cm)=0.5236×length(cm)×width(cm)[(length(cm)+width(cm))/2].
Indolocarbazole I-5 was dissolved in vehicle defined below:
(I-5)-Lysyl-β-alaninate was dissolved in 50 mM sodium acetate buffer, pH 5.5.

[2] = test system: Dunning R-3327 AT-2 rat prostate tumor; details: see WO 94/27982; cited from earlier work
[3] = test system: ChAT activity in spinal cord cultures; assay: Effect of indolocarbazole esters on ChAT activity in dissociated spinal cord cultures; format: cell-based, rat
Description: The effect of indolocarbazole esters of the invention on ChAT activity was assayed in dissociated spinal cord cultures prepared from fetal rats. ChAT is the enzyme that catalyzes the synthesis of the neurotransmitter acetylcholine, and it is a specific biochemical marker for cholinergic neurons. In the spinal cord, the large majority of cholinergic neurons are motor neurons. Assay of this enzyme may thus be used as an indication of the effects of a factor (or factors) on the survival and/or differentiation of cholinergic neurons and/or regulation of this enzyme. The procedure used for the assay is that described in Example 6 of WO 94/02488. Fourteen esters were tested in the spinal cord ChAT assay to determine their relative efficacy, and the results are summarized in Table 4.

[4] = In vitro metabolism of I-5 esters in rat liver S-9 fraction; format: in vitro ADME; details: 2 mg/mL protein, 5000 ng/mL
Description: (§1) Rat and human liver S-9 fractions (a mixture of cytosol and microsomes) were frozen immediately after preparation. Each aliquot was thawed once for use in incubations. Stock solutions of the indolocarbazole esters were prepared in DMSO. These were used to prepare standard curves in heat inactivated S-9 fraction that had been diluted with 0.2M phosphate buffer, pH 7.4 to yield a 2 mg/mL protein concentration. Heat inactivated S-9 was divided into 500 μL aliquots, mixed with an aliquot of the internal standard, and spiked with the respective stock ester solutions to prepare the standard curve. Incubations containing liver S-9 fraction were prepared by diluting the S-9 fraction in 0.2M phosphate buffer, pH 7.4 to yield a 2 mg/mL protein concentration. Samples (500 μL) were placed in screw-cap vials, mixed with internal standard, and spiked with stock solutions of the respective esters to yield a nominal concentration of 5000 ng/mL.
Incubations were then performed at 37° C. in a shaking water bath for 0, 0.5, 1, 2, 5, 10, 15, 30, and 60 minutes and quenched by addition of 5 mL methylene chloride. All tubes (standards and experimentals) were extracted for 15 minutes by shaking, and centrifuged. The methylene chloride layer was removed, dried under a stream of nitrogen, and reconstituted in DMSO. Fifty μL of the reconstituted extracts were analyzed by reverse-phase HPLC with detection at 290 nm. The mobile phase and gradient conditions are given below: […]

[5] = In vitro metabolism of I-5 esters in human liver S-9 fraction; format: in vitro ADME; details: 2 mg/mL protein
Description: as §1
Incubations were then performed at 37° C. in a shaking water bath for 0, 0.5, 1, 2, 5, 10, 15, 30, and 60 minutes and quenched by addition of 5 mL methylene chloride. All tubes (standards and experimentals) were extracted for 15 minutes by shaking, and centrifuged. […] Fifty μL of the reconstituted extracts were analyzed by reverse-phase HPLC with detection at 290 nm. […]

[6] = In vivo metabolism and intravenous pharmacokinetics of I-5 esters in male Sprague-Dawley rats; details: intravenous, rat; for hydrolysis to indolocarbazole I-5 in vivo: 5 mg/kg dose of I-5 equivalent
Description: Groups of 12 male Sprague-Dawley rats were administered either DMAB dihydrochloride or β-alaninate hydrochloride through the lateral tail vein in a vehicle consisting of 0.05M acetate buffer, pH 5.0 containing 20% polyethylene glycol. The volume of the dosing solution was adjusted on the basis of body weight to deliver a 5 mg/kg dose of indolocarbazole I-5 after complete hydrolysis of the respective indolocarbazole ester. At 5, 30, 60, and 120 minutes after injection, the animals were anesthetized with carbon dioxide and a sample of whole blood was obtained by cardiac puncture. The blood was placed into a 10 mL heparinized tube containing 100 μL 50% potassium fluoride (an inhibitor of plasma esterases). Following centrifugation, the resulting plasma was frozen in a dry-ice/isopropanol bath and kept frozen at −90° C. prior to analysis.
For analysis, the samples were thawed, internal standard was added, and the mixture was extracted with 5 mL methylene chloride. Standards in rat plasma were prepared as described previously. All tubes (standards and experimentals) were extracted for 15 minutes by shaking, and centrifuged. The methylene chloride layer was removed, dried under a stream of nitrogen, and reconstituted in DMSO. Fifty μL of the reconstituted extracts were analyzed by reverse-phase HPLC with detection at 290 nm. The mobile phase and gradient conditions are the same as those given in Example 17.

[7] = Solubility of the esters at 1 mg/ml in water and buffer solutions; details: for solubility in Tris buffer: 10 mM Tris buffer pH 9; for solubility in acetate buffer: 10 mM acetate buffer pH 4; for solubility in phosphate buffer: 10 mM phosphate buffer pH 7; for solubility in water: water (Solution 1)
Description: Indolocarbazole esters were dissolved in water, dimethylsulfoxide (DMSO) and the following buffer solutions to determine solubility and to observe conversion to indolocarbazole I-5. Samples were analyzed by HPLC using UV detection at 290 nm.
Solution 2 was a 10 mM acetate buffer at pH 4 which was prepared by weighing 0.68 g of sodium acetate 3H2O into 500 ml of water and adjusting the pH with acetic acid.
Solution 3 was a 10 mM phosphate buffer, pH 7, which was prepared by weighing 0.30 g of monobasic sodium phosphate and 0.36 g of dibasic sodium phosphate into 500 ml of water, stirring until completely dissolved, and adjusting the pH with hydrochloric acid.
Solution 4 was a 10 mM Tris buffer, pH 9, which was prepared by weighing 0.79 g of Tris (tris(hydroxymethyl)aminomethane hydrochloride) into 500 ml of water, stirring until completely dissolved, and adjusting the pH with sodium hydroxide.
Sample solutions were prepared by weighing 0.5-1 mg of the indolocarbazole ester into an amber 1.5 ml autosampler vial, to which the appropriate quantity of one of the buffer solutions was added, in order to achieve a final concentration of 1 mg/ml. The sample solutions were vortexed and sonicated for 10 minutes. Fifty μl aliquots were placed into 1.5 ml amber autosampler vials. The reaction was quenched at a selected time interval by addition of 450 μl DMSO to the vial.

[8] = Stability of the esters in buffered solution (conversion to indolocarbazole I-5, HPLC); format: physicochemical; details: buffer solutions, 24 hours
Description: Solution 5 was a DMSO control.
HPLC conditions were as follows:
The pH of the compounds in water varied from 2 to 5 while the buffers remained approximately the same at 3.6, 6.7 and 7.8 for the 10 mM acetate, phosphate and Tris, respectively.
Acetate buffers at pH 2, 3, 4, 5 and 6 were prepared as follows. A total of 6.8 g of sodium acetate trihydrate was added to one liter of water, and the mixture was stirred until the solid was completely dissolved. One hundred ml aliquots were placed into 150 ml Erlenmeyer flasks, and the pH values were adjusted with HCl to pH 2, 3, 4, 5, and 6. A concentration of 50 mM was chosen to reduce the effects of compound addition. The indolocarbazole ester of Example 14 was investigated only with the acetate buffers. The rates of conversion of I-5 (the appearance of indolocarbazole I-5) as a function of pH are shown in FIGS. 3, 4, and 5 for the indolocarbazole esters of Examples 14, 8, and 11, respectively.

[9] = Route-to-route comparison of indolocarbazole I-5 formation from lysyl-β-alaninate in rats; format: in vivo, rat; details: for plasma levels of indolocarbazole I-5: intravenous 8.01 mg/kg
Description: Groups of 12 male Sprague-Dawley rats were administered lysyl-β-alaninate dihydrochloride via intravenous or subcutaneous injection, as well as by oral gavage at a dose of 8.01 mg/kg. This dose was designed to deliver a 5 mg/kg equivalent dose of indolocarbazole I-5 following complete hydrolysis of the indolocarbazole ester. The volume of the dosing solution was adjusted on the basis of body weight. At 5, 30, 60, and 120 minutes after intravenous injection and 30, 60, 120, and 240 minutes after either subcutaneous injection or oral gavage, the animals were anesthetized with carbon dioxide and a sample of whole blood was obtained by cardiac puncture. The blood was placed into a heparinized container containing 100 μL 50% potassium fluoride (an inhibitor of plasma esterases) and 10 μL phenylmethylsulfonylfluoride (an inhibitor of plasma amidase). Following centrifugation, the resulting plasma was frozen in a dry-ice/isopropanol bath and kept frozen at −90° C. prior to analysis.
For analysis, the samples were thawed, internal standard was added, and the mixture was extracted with 5 mL methylene chloride. Standards in rat plasma were prepared as described previously. All tubes (standards and experimentals) were extracted for 15 minutes by shaking, and centrifuged. The methylene chloride layer was removed, dried under a stream of nitrogen, and reconstituted in DMSO. Fifty μL of the reconstituted extracts was analyzed by reverse-phase HPLC with detection at 290 nm. The mobile phase and gradient conditions are the same as those given in Example 17.

Compound | Tumor volume Day 0 [1] | Tumor volume Day 3 [1] | Tumor volume Day 6 [1] | Tumor volume Day 9 [1] | Tumor volume Day 13 [1] | inhibiting the growth of AT-2 tumors [1] | inhibition of tumor growth [1] | Spinal Cord ChAT Activity (% of Control) 500 nM [3] | Spinal Cord ChAT Activity (% of Control) 1000 nM [3] | hydrolysis of the ester [4] | rates of hydrolysis [5] | hydrolysis to indolocarbazole I-5 in vivo [6] | time ester could be detected in plasma following administration [6] | solubility in Tris buffer [7] | solubility in acetate buffer [7] | solubility in phosphate buffer [7] | solubility in water [7] | rate of conversion to indolocarbazole I-5 [8] | also measured
COC1(CO)CC2OC1(C)n1c3ccccc3c3c4c(c5c6ccccc6n2c5c31)C(=O)NC4 (stereo not shown) [Example I-5, reference compound] | 0.7 ± 0.1 cm^3 | 1.6 ± 0.2 cm^3 | 2.1 ± 0.1 cm^3 | 5.4 ± 0.7 cm^3 | 11.6 ± 1.8 cm^3 | effective | 53% |  |  |  |  |  |  |  |  |  |  |  | growth inhibition of Dunning R-3327 AT-2 rat prostate tumor in vivo [2]: growth inhibitory properties
COC1(COC(=O)CCN)CC2OC1(C)n1c3ccccc3c3c4c(c5c6ccccc6n2c5c31)C(=O)NC4.Cl (stereo not drawn) [Example 11, (I-5)-β-Alaninate Hydrochloride] |  |  |  |  |  |  |  | 138 % of Control | 149 % of Control | rate of hydrolysis was markedly reduced | similar | rapidly hydrolyzed | one | not completely soluble | completely soluble | not completely soluble | completely soluble |  | 
COC1(COC(=O)CCNC(=O)C(N)CCCCN)CC2OC1(C)n1c3ccccc3c3c4c(c5c6ccccc6n2c5c31)C(=O)NC4.Cl.Cl (stereo not drawn) [Example 14, (I-5)-Lysyl-β-Alaninate Dihydrochloride] | 0.6 ± 0.1 cm^3 | 1.5 ± 0.2 cm^3 | 2.1 ± 0.2 cm^3 | 4.8 ± 0.6 cm^3 | 8.3 ± 0.5 cm^3 | effective | 72% | 121 % of Control | 147 % of Control | initial hydrolysis of the amide bond between the two amino acids appears to be the first metabolic event followed by hydrolysis of the ester linkage |  |  |  | completely soluble | completely soluble | completely soluble | completely soluble | low rate of conversion | plasma levels of indolocarbazole I-5 ([9]; 5 minutes after dosing): approximately 600 ng/mL; plasma levels of indolocarbazole I-5 ([9]; 2 hours after dosing): approximately 80 ng/mL; plasma levels of I-5 ([9]; oral dose 8.01 mg/kg, limit of quantitation): < 50 ng/mL; conversion to I-5 in vivo ([9]; rat): rapidly converted; plasma levels of I-5 ([9]; subcutaneous 8.01 mg/kg, all time points examined): approximately 70 ng/mL
COC1(COC(=O)CC(C)N(C)C)CC2OC1(C)n1c3ccccc3c3c4c(c5c6ccccc6n2c5c31)C(=O)NC4.Cl (stereo not shown) [Example 8, (I-5)-Dimethylaminobutyrate Hydrochloride] |  |  |  |  |  |  |  | inactive | 138 % of Control | rapid hydrolysis | similar | rapidly hydrolyzed | two | not completely soluble | completely soluble | not completely soluble | completely soluble | low rate of conversion | 
